Measurements published in patent publication US8148371B2, “Adenine compound and use thereof” (Dainippon Sumitomo Pharma Co., Ltd., priority 2002, dated 2012).
Like-named read-outs stand apart in the source and are kept apart here. Marks after values point to notes of the source that are not given here.

What was measured:
cells of rat spleen = assay: cells; format: cell-based, SD rat; conditions: 24 h, read-out: Minimum effective concentration (interferon inducing activity)
cells of mouse spleen = assay: cells; format: cell-based, C3H/HeJ mouse; conditions: Mus musculus, 24 h, read-out: Minimum effective concentration (interferon inducing activity)
[1] = Metabolic stability on liver S9 of rat; conditions: 37° C.
Method: The compound of the present invention is added to liver S9 solution, and the mixture is incubated at 37±0.5° C. for 5 minutes to 2 hours. By quantitatively analyzing at the definite interval the amount of the compound of the present invention remaining in the liver S9 solution with HPLC (high performance liquid chromatography), etc., the constant of quenching velocity is calculated and the half life is calculated.
The reaction on river S9 of a rat was carried out on a 96-well plate by using a robot for screening by Tecan Company. S9 solution was prepared by adding to 10 ml of liver S9 of a rat, 20 ml of 250 mM Kpi (pH 7.4) and 20 ml of deionized water. Cofactor solution was prepared by dissolving NADPH (220 mg) in deionized water (40.5 ml) to give finally a 6 mM solution. IS (Internal Standard) solution was prepared by adding 300 μL of IS solution (1 mM DMSO solution) to 30 ml of acetonitrile solution (100 times dilution). The test compound (1 μM DMSO solution) was dissolved in an incubator at 37° C., 35 μL of it was poured into each well of a 96-well plate (24 samples/plate and then, plates (a sample plate, a 96 well-plate for dilution, deep well plates for reaction and recovering, a plate for extraction of the solid phase) and the test samples (S9 solution, Cofactor solution, IS (Internal Standard) solution, Stop solution, acetonitrile for elution) were set to the specified position in the booth of the robot. The reaction started (the concentration of the test compound was 1 μM) and the mixture was incubated at 37° C. under stirring. The solid phase was extracted and at the same time the internal standard for analysis was added. To the recovered sample (200 μL/well) was added 50 μL of acetonitrile per each well and to 2 plates of FALCON Deep well were poured 100 μL of the solution per well. By subjecting to the LC/MS analysis, the chromatogram of the test sample and the internal standard were described and the peak area was calculated. And then, the stability (residual rate after reaction) was calculated by the internal standard method.

plasma esterase = conditions: rat plasma, 37° C., 15 minutes
Method: The compound of the present invention is added to the serum solution, and the mixture is incubated at 37±0.5° C. for 5 minutes to 2 hours. By quantitatively analyzing at the definite interval the amount of the compound of the present invention remaining in the serum solution with HPLC (high performance liquid chromatography), etc., the constant of quenching velocity calculated and the half life is calculated.
The serum herein means the supernatant fraction obtained by excluding hemocytes and blood coagulation factor from blood by centrifugation, etc. The serum diluted with buffer, etc. can be used.
The metabolic stability of the test compound was presented by the residual amount (%) per the concentration of pre-metabolization.

[2] = rat liver S9, test compound 1 μM
[3] = rat liver S9, test compound 10 μM (*)

Row | SMILES | minimal effective concentration (cells of rat spleen) [µM] | minimal effective concentration (cells of mouse spleen) [µM] | Residual rate [1, 2] [%] | Residual rate (plasma esterase; test compound 10 μM) [%] | Residual rate [1, 3] | Residual rate (plasma esterase; test compound 1 μM (*))
1 | CCCCOc1nc(N)c2nc(O)n(Cc3cccc(C(=O)O)c3)c2n1 [Comparative example 1, 2-Butoxy-8-hydroxy-9-(3-carboxybenzyl)adenine, reference compound] | 0.01 | 0.003 | – | – | – | –
2 | CCCCOc1nc(N)c2nc(O)n(Cc3ccc(C(=O)O)o3)c2n1 [Comparative example 3, 2-Butoxy-8-hydroxy-9-(5-carboxyfurfuryl)adenine, reference compound] | 0.01 | 0.1 | – | – | – | –
3 | CCCCOc1nc(N)c2nc(O)n(Cc3cccc(CC(=O)O)c3)c2n1 [Comparative example 5, 2-Butoxy-8-hydroxy-9-(3-carboxymethylbenzyl)adenine, reference compound] | 0.01 | 0.1 | – | – | – | –
4 | CCCCOc1nc(N)c2nc(O)n(Cc3ccc(CC(=O)O)cc3)c2n1 [Comparative example 6, 2-Butoxy-8-hydroxy-9-(4-carboxymethylbenzyl)adenine, reference compound] | 0.01 | 0.03 | – | – | – | –
5 | Nc1nc(CC(=O)O)nc2c1nc(O)n2Cc1ccccc1 [Comparative example 8, 9-Benzyl-2-carboxymethyl-8-hydroxyadenine, reference compound] | 3 | 10 | – | – | – | –
6 | Cc1ccc(Cn2c(O)nc3c(N)nc(NCCO)nc32)cn1 [Comparative example 10, 8-Hydroxy-2-(2-hydroxyethylamino)-9-{(6-methyl-3-pyridyl)methyl}adenine, reference compound] | – | 1 | – | – | – | –
7 | Cc1ccc(Cn2c(O)nc3c(N)nc(OCCO)nc32)cn1 [Comparative example 11, 8-Hydroxy-2-(2-hydroxyethoxy)-9-{(6-methyl-3-pyridyl)methyl}adenine, reference compound] | – | 0.1 | – | – | – | –
8 | Nc1nc(SCC(=O)O)nc2c1nc(O)n2Cc1ccccc1 [Comparative example 12, 9-Benzyl-8-hydroxy-2-(calboxylmethyl)thioadenine, reference compound] | 0.3 | 10 | – | – | – | –
9 | Nc1nc(SCCC(=O)O)nc2c1nc(O)n2Cc1ccccc1 [Comparative example 13, 9-Benzyl-8-hydroxy-2-(2-calboxylethyl)thioadenine, reference compound] | 0.3 | 10 | – | – | – | –
10 | CCCCOc1nc(N)c2nc(O)n(Cc3cccc(C(=O)OCC)c3)c2n1 [Example 2, 2-Butoxy-8-hydroxy-9-(3-ethoxycarbonylbenzyl)adenine] | 0.001 | – | 11 | 5 | – | –
11 | CCCCOc1nc(N)c2nc(O)n(Cc3ccc(C(=O)OC)nc3)c2n1 [Example 17, 2-Butoxy-8-hydroxy-9-{(6-methoxycarbonyl-3-pyridyl)methyl}adenine] | 0.001 | – | 28 | 0 | – | –
12 | CC(C)(C)OC(=O)CSc1nc(N)c2nc(O)n(Cc3ccccc3)c2n1 [Example 43, 9-Benzyl-2-(t-butoxycarbonylmethyl)thio-8-hydroxyadenine] | – | – | 2 | 0 | – | –
13 | C=CCOC(=O)CSc1nc(N)c2nc(O)n(Cc3ccccc3)c2n1 [Example 44, 2-(Allyloxycarbonylmethyl)thio-9-benzyl-8-hydroxyadenine] | – | – | 0 | 0 | – | –
14 | Nc1nc(SCC(=O)OCc2ccccc2)nc2c1nc(O)n2Cc1ccccc1 [Example 45, 2-(Benzyloxycarbonylmethyl)thio-9-benzyl-8-hydroxyadenine] | – | – | – | 0 | 8* % | –
15 | Nc1nc(SCC(=O)OCCF)nc2c1nc(O)n2Cc1ccccc1 [Example 46, 9-Benzyl-2-(2-fluoroethoxycarbonylmetyl)thio-8-hydroxyadenine] | – | – | 0 | 0 | – | –
16 | Nc1nc(SCC(=O)OCC(F)F)nc2c1nc(O)n2Cc1ccccc1 [Example 47, 9-Benzyl-2-(2,2-difluoroethoxycarbonylmetyl)thio-8-hydroxyadenine] | – | – | 0 | 0 | – | –
17 | COCCOC(=O)CSc1nc(N)c2nc(O)n(Cc3ccccc3)c2n1 [Example 49, 9-Benzyl-8-hydroxy-2-(2-methoxyethoxycarbonylmethyl)thioadenine] | – | – | 0 | 0 | – | –
18 | CCOC(=O)CCSc1nc(N)c2nc(O)n(Cc3ccccc3)c2n1 [Example 55, 9-Benzyl-2-(2-ethoxycarbonylethyl)thio-8-hydroxyadenine] | – | – | – | 0 | 4* % | –
19 | CCOC(=O)CCCSc1nc(N)c2nc(O)n(Cc3ccccc3)c2n1 [Example 56, 9-Benzyl-2-(3-ethoxycarbonylpropyl)thio-8-hydroxyadenine] | – | – | 1 | 0 | – | –
20 | COC(=O)CCc1nc(N)c2nc(O)n(Cc3ccccc3)c2n1 [Example 61, 9-Benzyl-8-hydroxy-2-(2-methoxycarbonylethyl)adenine] | 0.003 | – | 0 | – | – | 0* %
21 | COC(=O)COc1nc(N)c2nc(O)n(Cc3ccccc3)c2n1 [Example 64, 9-Benzyl-8-hydroxy-2-methoxycarbonylmethoxyadenine] | 0.003 | – | 2 | – | – | 0* %
22 | CCCCOc1nc(N)c2nc(O)n(Cc3ccc(CC(=O)OCC)cc3)c2n1 [Example 68, 2-Butoxy-8-hydroxy-9-(4-ethoxycarbonylmethylbenzyl)adenine] | 0.0003 | – | 13 | – | – | 0* %
23 | CCCCOc1nc(N)c2nc(O)n(Cc3cccc(CC(=O)OCCF)c3)c2n1 [Example 70, 2-Butoxy-8-hydroxy-9-{3-(2-fluoroethoxycarbonyl)methylbenzyl}adenine] | 0.001 | – | 16 | – | – | 0* %
24 | CCCCOc1nc(N)c2nc(O)n(Cc3ccc(CC(=O)OCCO)cc3)c2n1 [Example 71, 2-Butoxy-8-hydroxy-9-{4-(2-hydroxyethoxycarbonyl)methylbenzyl}adenine] | 0.0003 | – | 0 | – | – | 0* %
25 | CCCCOc1nc(N)c2nc(O)n(Cc3ccc(CC(=O)OCCN4CCOCC4)cc3)c2n1 [Example 73, 2-Butoxy-8-hydroxy-9-{4-(2-morpholinoethoxycarbonyl)methylbenzyl}adenine] | 0.0003 | – | 0 | – | – | 4* %
26 | CCCCOc1nc(N)c2nc(O)n(Cc3ccc(CC(=O)SC)cc3)c2n1 [Example 74, 2-Butoxy-8-hydroxy-9-{4-(S-methylthiocarbonyl)methylbenzyl}adenine] | 0.001 | – | 7 | – | – | 0* %
27 | CCCCOc1nc(N)c2[nH]c(=O)n(Cc3cccc(CC(=O)OCC)c3)c2n1 [Example 80, 2-Butoxy-9-(3-ethoxycarbonylmethylbenzyl)-8-hydroxyadenine] | 0.001 | – | 0 | – | – | 0* %
28 | COC(=O)c1cccc(CSc2nc(N)c3nc(O)n(Cc4ccccc4)c3n2)c1 [Example 103, 9-Benzyl-8-hydroxy-2-[(3-methoxycarbonylbenzyl)thio]adenine] | 0.01 | – | 7 | – | – | 6* %
